Consider two substances from paper PMC5872323, “The Plant Defensin NaD1 Enters the Cytoplasm of Candida albicans via Endocytosis” (Journal of Fungi, 2018).

Where no end group is shown, it is not given here.

Assay [1] concerns C. albicans DAY185. As to the kind of experiment: Flow cytometry BODIPY-NaD1 uptake at 30 °C or 4 °C. It is filed as cell-based, Candida albicans. Particulars: 0, 5 or 10 µM BODIPY-NaD1, 30 min, half-strength PDB, three biological replicates. How it is done: (§1) C. albicans DAY185 overnight cultures were diluted in half-strength potato dextrose broth (PDB) to an OD600 of 0.2 and grown for 3 h (30 °C, 250 rpm) before they were diluted again to an OD600 of 0.1 with half-strength PDB and used in cell death and NaD1 uptake assays. Cell death assays were conducted by treating 300 µL of C. albicans cells with 0, 5, 10 or 20 µM of native NaD1 or LL-37 and 5 µM PI. NaD1 uptake at 4 °C was measured by treating 300 µL of cells with 0, 5 or 10 µM BODIPY-labelled NaD1. All treatments were conducted for 30 min at either 30 °C or 4 °C without shaking and in the dark. […] For BODIPY-labelled NaD1, cells were excited at 488 nm and emission was detected using a 530/30 filter. For PI, cells were excited at 488 nm and emission was detected using a 670LP filter. Data were analysed using Weasel v3.0 (Walter and Eliza Hall Institute, Parkville, Australia).
(§2) Figure 2 NaD1 induced cell death and uptake is reduced at 4 °C. […] PI (5 µM) was added for quantitation of cell death. Cells with PI fluorescence were counted using a flow cytometer to separate living and dead cells at both 30 °C (grey shading) and 4 °C (black line). Data is a representative example from three independent experiments; (Aii) The percentage of PI positive cells (percent cell death) relative to total cell counts was also calculated for three biological replicates and is shown in a bar graph. […]
A general note: In flow cytometry, cells or beads pass a laser one at a time.

Assay [2] relates to C. albicans DAY185. As to the kind of experiment: Confocal microscopy of BODIPY-NaD1 uptake after CCCP or latrunculin A pre-treatment (cell counts). The class given is cell-based, Candida albicans. Particulars: 0 µM CCCP (no-inhibitor control), 10 µM BODIPY-NaD1 for 10 min, n = 4. How it is done:
C. albicans DAY185 overnight cultures were diluted in half-strength potato dextrose broth (PDB; Becton Dickinson, Scoresby, Australia) to an OD600 of 0.2 and grown for a further three hours (30 °C, 250 rpm). Cells were then diluted to an OD600 of 0.3 with half-strength PDB. For time course experiments, 300 µL aliquots (in 1.5 mL microcentrifuge tubes) were pre-treated with 5 µM propidium iodide (PI; Sigma, St Louis, MO, USA) for 10 min prior to addition of BODIPY- labelled NaD1. For CCCP and latrunculin A experiments, yeast cells were pre-treated with 50 µM CCCP (Sigma) or 100 µM latrunculin A (AdipoGen, Liestal, Switzerland) for 2 h (30 °C, 250 rpm) before addition of 5 µM PI. BODIPY-NaD1 (10 µM) was then added and cells were monitored using a Zeiss LSM510/ConfoCor confocal with images taken every 5 sec. BODIPY was excited at 488 nm (Argon laser) and emission was detected at 505 to 530 nm. PI was excited at 561 nm (DPSS laser) and fluorescence was monitored at 575 to 615 nm. Images were captured using Zen2009 (Zeiss, Oberkochen, Germany) software and analysed using FIJI (Bethesda, Rockville, MD, USA). Brightness and contrast for Figure 1, Figure 3 and Figure 4 were adjusted using the auto-brightness/contrast function of FIJI.
Figure 3 NaD1 uptake is reduced after treatment with CCCP. […]

A further assay has as its system C. albicans DAY286 (WT). In words: Fungal growth inhibition assay, ESCRT wild type. The note with it: half-strength PDB, 30 °C, 24 h, absorbance 595 nm, IC50 ± standard deviation, n = 4. The class given is cell-based, Candida albicans. The text has this:
(§3) All C. albicans strains were obtained from the fungal genetic stock centre and are described in [26, 27, 28]. Strains were derived from the BWP17 background strain (ura3::imm434/ura3::imm434 iro1/iro1::imm434 his1::hisG/his1::hisG arg4/arg4). The DAY185 wild-type C. albicans strain (ARG4+, URA3+, HIS1+) was used in most assays. For testing of C. albicans ESCRT mutants, DAY286 (ARG4+, URA3+, his1-) was used as the wild-type strain. C. albicans ESCRT (ARG4+, URA3+, his1-) mutants were produced by transposon insertion. Strains were grown in yeast extract-peptone dextrose (YPD) at 30 °C with shaking (250 rpm). For C. albicans mutant strains, YPD was supplemented with 80 µg/mL uridine.
Fungal growth inhibition assays were performed essentially as described in [30]. Overnight cultures of C. albicans cells were diluted to 5000 cells/mL with half-strength PDB. For growth inhibition assays in the presence of latrunculin A, 80 µL of diluted C. albicans DAY185 cells were added to 10 µL of latrunculin A and 10 µL of NaD1 in a 96 well microtiter plate (Greiner, Kremsmünster, Austria) to final concentrations of 2.5, 3, 4 and 4.5 µM NaD1 and 0 or 20 μM latrunculin A (AdipoGen). […] Growth of cells was monitored by measuring absorbance at 595 nm in a SpectraMAX M5e plate reader (Molecular Devices, San Jose, CA, USA). […]

Assay [3] concerns C. albicans DAY185. In words: Flow cytometry cell death assay (PI positive cells) at 30 °C or 4 °C. The note with it: 0, 5, 10 or 20 µM peptide, 5 µM PI, 30 min, half-strength PDB, three biological replicates. The class given is cell-based, Candida albicans. Here is the method:
as §1, §2

Assay [4] has as its system C. albicans DAY185. Particulars: growth inhibition of C. albicans DAY185, previously reported; cited from earlier work.
For assay [5], the system named is C. albicans DAY185. In words: Fungal growth inhibition assay. The class given is cell-based, Candida albicans. Particulars: half-strength PDB, 30 °C, 24 h, absorbance 595 nm, n = 3. Here is the method:
(§4) Fungal growth inhibition assays were performed essentially as described in [30]. Overnight cultures of C. albicans cells were diluted to 5000 cells/mL with half-strength PDB. For growth inhibition assays in the presence of latrunculin A, 80 µL of diluted C. albicans DAY185 cells were added to 10 µL of latrunculin A and 10 µL of NaD1 in a 96 well microtiter plate (Greiner, Kremsmünster, Austria) to final concentrations of 2.5, 3, 4 and 4.5 µM NaD1 and 0 or 20 μM latrunculin A (AdipoGen). For brefeldin A and nocodazole assays, 80 µL of diluted C. albicans DAY185 cells was added to 10 µL of inhibitor and 10 µL of NaD1 in a microtiter plate. Brefeldin A (Sigma) and nocodazole where serially diluted (two-fold) down the plate with top final concentrations of 40 µM and 20 µM respectively. NaD1 was added to all wells at a final concentration of 2.5 µM. No-inhibitor controls were also included. For testing the antifungal activity of NaD1 against the C. albicans ESCRT mutants, 80 µL of diluted cells (DAY286 wild type and mutants) were added to 20 µL of NaD1 serially diluted from a top final concentration of 10 µM. All plates were incubated at 30 °C overnight without shaking. Growth of cells was monitored by measuring absorbance at 595 nm in a SpectraMAX M5e plate reader (Molecular Devices, San Jose, CA, USA). Measurements were taken at t = 0 and t = 24 h.

The test system of the next assay is C. albicans snf7Δ. In words: Fungal growth inhibition assay, ESCRT mutant. The class given is cell-based, Candida albicans. Particulars: half-strength PDB, 30 °C, 24 h, absorbance 595 nm, IC50 ± standard deviation, n = 4.
Description: as §3, §4

The next assay deals with C. albicans vps36Δ. As to the kind of experiment: Fungal growth inhibition assay, ESCRT mutant. The class given is cell-based, Candida albicans. The note with it: half-strength PDB, 30 °C, 24 h, absorbance 595 nm, IC50 ± standard deviation, n = 4.
Description: as §3, §4

Another assay has as its system C. albicans vps2Δ. As to the kind of experiment: Fungal growth inhibition assay, ESCRT mutant. The class given is cell-based, Candida albicans. Particulars: half-strength PDB, 30 °C, 24 h, absorbance 595 nm, IC50 ± standard deviation, n = 4.
Description: as §3, §4

For the next assay, the system named is C. albicans vps24Δ. In words: Fungal growth inhibition assay, ESCRT mutant. The class given is cell-based, Candida albicans. Particulars: half-strength PDB, 30 °C, 24 h, absorbance 595 nm, IC50 ± standard deviation, n = 4.
Description: as §3, §4

In another assay the test system is C. albicans vps28Δ. As to the kind of experiment: Fungal growth inhibition assay, ESCRT mutant. The class given is cell-based, Candida albicans. Particulars: half-strength PDB, 30 °C, 24 h, absorbance 595 nm, IC50 ± standard deviation, n = 4.
Description: as §3, §4

Another assay deals with C. albicans vps23Δ. In words: Fungal growth inhibition assay, ESCRT mutant. It is filed as cell-based, Candida albicans. The note with it: half-strength PDB, 30 °C, 24 h, absorbance 595 nm, IC50 ± standard deviation, n = 4.
Description: as §3, §4

The test system of a further assay is C. albicans bro1Δ. In words: Fungal growth inhibition assay, ESCRT mutant. It is filed as cell-based, Candida albicans. Particulars: half-strength PDB, 30 °C, 24 h, absorbance 595 nm, IC50 ± standard deviation, n = 4.
Description: as §3, §4

Take “BODIPY-NaD1: NaD1 fluorescently labelled with BODIPY-FL-EDA (RECKTESNTFPGICITKPPCRKACISEKFTDGHCSKILRRCLCTKPC; BODIPY-FL-EDA label; UniProt Q8GTM0 26-72, looked up)”: the “cells containing BODIPY-labelled NaD1 in the cytoplasm at 4 °C compared to 30 °C” value in the assay on C. albicans DAY185 [1] was “Fewer cells”. Besides, the “cells with BODIPY-labelled NaD1 accumulated on the cell surface, relative to total cell counts” value with C. albicans DAY185 [2] is listed as “about 21%”.
As to “NaD1: plant defensin from ornamental tobacco, purified from the flowers of Nicotiana alata (RECKTESNTFPGICITKPPCRKACISEKFTDGHCSKILRRCLCTKPC; ends and bridges not checked; cysteine pairing not given here; UniProt Q8GTM0 26-72, looked up)”, the concentration for half-maximal inhibition (IC50) was 1800 ± 490 nM in the assay with C. albicans DAY286 (WT); 2300 ± 600 nM in the assay on C. albicans DAY185 [4]; 1900 ± 450 nM in the assay on C. albicans snf7Δ; 1700 ± 280 nM in the assay on C. albicans vps36Δ; 1800 ± 400 nM in the assay on C. albicans vps2Δ; 2100 ± 330 nM in the assay with C. albicans vps24Δ. In addition, the IC50 turned out to be 1600 ± 330 nM in the assay on C. albicans vps28Δ, 1800 ± 430 nM with C. albicans vps23Δ and 2100 ± 350 nM with C. albicans bro1Δ. The “cell death (PI positive cells) at 4 °C compared to 30 °C” value in the assay with C. albicans DAY185 [3] is given as “less cell death”. In addition, the “growth of cells with NaD1 plus brefeldin A versus NaD1 only” value with C. albicans DAY185 [5] (2.5 µM NaD1 with 20 µM brefeldin A) was “No significant difference”. Also, the “growth inhibition by NaD1 in the presence of latrunculin A” value in the assay on C. albicans DAY185 [5] (2.5 µM NaD1 with 20 µM latrunculin A, 5000 cells/mL) is “reduced”. For the same substance, the “growth of cells with NaD1 plus nocodazole versus NaD1 only” value in the assay on C. albicans DAY185 [5] (2.5 µM NaD1 with 20 µM nocodazole) is “No significant difference”. For the same substance, in the assay on C. albicans DAY185 [5] (4 µM NaD1 with 20 µM latrunculin A, 5000 cells/mL), the “protection of cells from NaD1 by latrunculin A” value is listed as “did not protect”.

A word on the IC50: it is the concentration that gives 50% inhibition.
